Our source for the IC50 values is patent publication US9765056B2, “Indole and pyrrole compounds, a process for their preparation and pharmaceutical compositions containing them” (LES LABORATOIRES SERVIER, priority 2013, dated 2017).

In one assay the target is Bcl-2 protein (histag-Bcl-2, UniProtKB P10415) (Homo sapiens (Human), UniProt P10415). Kind of assay: Inhibition of Bcl-2 by the fluorescence polarisation technique. Format: binding. As to conditions: fluorescence polarisation test; method A, or method B where underlined (underlining not visible); read-out: IC50 (nM) Bcl-2 FP. An excerpt:
Inhibition of Bcl-2 by the fluorescence polarisation technique

The subject of assay [1] is RS4;11 leukaemia tumour line. The assay is described as follows: In vitro cytotoxicity, Microculture Tetrazolium Assay (MTT). In kind it is cell-based. The note with it: Homo sapiens; RS4;11 cells, 48 hours exposure. As for the experimental part:
The cytotoxicity studies were carried out on the RS4;11 leukaemia tumour line.
The cells are distributed onto microplates and exposed to the test compounds for 48 hours. The cell viability is then quantified by a colorimetric assay, the Microculture Tetrazolium Assay (Cancer Res., 1987, 47, 939-942).

Structures can show the parent of a compound that is named as a salt.

Bcl-2 protein, sequence (P10415 whole entry): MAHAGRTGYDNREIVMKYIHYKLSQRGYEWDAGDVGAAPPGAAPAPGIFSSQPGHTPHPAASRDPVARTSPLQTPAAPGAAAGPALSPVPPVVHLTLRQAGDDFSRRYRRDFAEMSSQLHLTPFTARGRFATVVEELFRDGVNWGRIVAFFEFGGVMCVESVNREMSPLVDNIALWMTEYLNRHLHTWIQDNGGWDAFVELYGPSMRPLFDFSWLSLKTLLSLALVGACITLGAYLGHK

Take `CN1CCN(C[C@@H]2Cc3ccccc3CN2C(=O)c2ccc(Cl)cc2-n2cc(C(=O)N(c3ccc(O)cc3)c3ccc(F)cc3)c3ccccc32)CC1` [Example 75, 1-(5-Chloro-2-{[(3S)-3-[(4-methylpiperazin-1-yl)methyl]-3,4-dihydroisoquinolin-2(1H)-yl]carbonyl}phenyl)-N-(4-fluorophenyl)-N-(4-hydroxyphenyl)-1H-indole-3-carboxamide]: the figures for the IC50 (at Bcl-2 protein; in assay [1]) were 7.1 nM and 184 nM, respectively.
As to `CN1CCN(C[C@@H]2Cc3ccccc3CN2C(=O)c2ccc(Cl)cc2-n2cc(C(=O)N(c3ccc(O)cc3)c3ccc(Cl)cc3)c3ccccc32)CC1` [Example 76, 1-(5-Chloro-2-{[(3S)-3-[(4-methylpiperazin-1-yl)methyl]-3,4-dihydroisoquinolin-2(1H)-yl]carbonyl}phenyl)-N-(4-chlorophenyl)-N-(4-hydroxyphenyl)-1H-indole-3-carboxamide], the IC50 at Bcl-2 protein turned out to be 8.7 nM; in assay [1] it was 151 nM.
Turning to `Cc1cc(C(=O)N(c2ccc(O)cc2)c2ccc3c(ccn3C)c2)cn1-c1cc(Cl)c(F)cc1C(=O)N1Cc2ccccc2C[C@H]1CN1CCN(C)CC1` [Example 77, 1-(5-Chloro-4-fluoro-2-{[(3S)-3-[(4-methylpiperazin-1-yl)methyl]-3,4-dihydroisoquinolin-2(1H)-yl]carbonyl}phenyl)-N-(4-hydroxyphenyl)-5-methyl-N-(1-methyl-1H-indol-5-yl)-1H-pyrrole-3-carboxamide hydrochloride], the IC50 worked out at 4.9 nM at Bcl-2 protein and 207 nM in assay [1].
The like results for `CN1CCN(C[C@@H]2Cc3ccccc3CN2C(=O)c2cc(F)c(Cl)cc2-n2cc(C(=O)N(c3ccc(O)cc3)c3ccc4c(ccn4C)c3)c3ccccc32)CC1` [Example 78, 1-(5-Chloro-4-fluoro-2-{[(3S)-3-[(4-methylpiperazin-1-yl)methyl]-3,4-dihydroisoquinolin-2(1H)-yl]carbonyl}phenyl)-N-(4-hydroxyphenyl)-N-(1-methyl-1H-indol-5-yl)-1H-indole-3-carboxamide hydrochloride] were, in that order, 3.7 nM and 81.4 nM.
The like results for `Cc1cc(C(=O)N(c2ccc(O)cc2)c2ccc3[nH]ccc3c2)cn1-c1cc(Br)ccc1C(=O)N1Cc2ccccc2C[C@H]1CN1CCC(F)(F)CC1` [Example 79, 1-(5-Bromo-2-{[(3S)-3-[(4,4-difluoropiperidin-1-yl)methyl]-3,4-dihydroisoquinolin-2(1H)-yl]carbonyl}phenyl)-N-(4-hydroxyphenyl)-N-(1H-indol-5-yl)-5-methyl-1H-pyrrole-3-carboxamide] were, in that order, 85.5 nM and 344 nM.
The like results for `Cc1cc(C(=O)N(c2ccc(O)cc2)c2ccc3[nH]ccc3c2)cn1-c1cc(Br)ccc1C(=O)N1Cc2ccccc2C[C@H]1CN1CCN(C2CCCC2)CC1` [Example 80, 1-(5-Bromo-2-{[(3S)-3-[(4-cyclopentylpiperazin-1-yl)methyl]-3,4-dihydroisoquinolin-2(1H)-yl]carbonyl}phenyl)-N-(4-hydroxyphenyl)-N-(1H-indol-5-yl)-5-methyl-1H-pyrrole-3-carboxamide] were, in that order, 6.8 nM and 120 nM.
On to `CN1CCN(C[C@@H]2Cc3ccccc3CN2C(=O)c2cc3c(cc2-n2cc(C(=O)N(c4ccc(O)c(Cl)c4)c4ccc5c(ccn5C)c4)c4ccccc42)OCO3)CC1` [Example 81, N-(3-Chloro-4-hydroxyphenyl)-N-(1-methyl-1H-indol-5-yl)-1-(6-{[(3S)-3-[(4-methylpiperazin-1-yl)methyl]-3,4-dihydroisoquinolin-2(1H)-yl]carbonyl}-1,3-benzodioxol-5-yl)-1H-indole-3-carboxamide hydrochloride], for which the IC50 on Bcl-2 protein was found to be 83.8 nM; in assay [1], 652 nM.
In the case of `CN1CCN(C[C@@H]2Cc3ccccc3CN2C(=O)c2cc3c(cc2-n2cc(C(=O)N(c4ccc(O)c(Cl)c4)c4ccc5[nH]ccc5c4)c4ccccc42)OCO3)CC1` [Example 82, N-(3-Chloro-4-hydroxyphenyl)-N-(1H-indol-5-yl)-1-(6-{[(3S)-3-[(4-methylpiperazin-1-yl)methyl]-3,4-dihydroisoquinolin-2(1H)-yl]carbonyl}-1,3-benzodioxol-5-yl)-1H-indole-3-carboxamide hydrochloride], the IC50 stood at 17.6 nM on Bcl-2 protein and 373 nM in assay [1].
With `Cc1cc(C(=O)N(c2ccc(O)cc2)c2ccc(O)cc2)cn1-c1cc2c(cc1C(=O)N1Cc3ccccc3C[C@H]1CN1CCN(C)CC1)OCO2` [Example 83, N,N-bis(4-Hydroxyphenyl)-5-methyl-1-(6-{[(3S)-3-[(4-methylpiperazin-1-yl)methyl]-3,4-dihydroisoquinolin-2(1H)-yl]carbonyl}-1,3-benzodioxol-5-yl)-1H-pyrrole-3-carboxamide], the figures for the IC50 (at Bcl-2 protein; in assay [1]) were 3.7 nM and 350 nM, respectively.
On to `Cc1cc(C(=O)N(c2ccc(O)cc2)c2ccc(F)cc2)cn1-c1cc2c(cc1C(=O)N1Cc3ccccc3C[C@H]1CN1CCN(C)CC1)OCO2` [Example 84, N-(4-Fluorophenyl)-N-(4-hydroxyphenyl)-5-methyl-1-(6-{[(3S)-3-[(4-methylpiperazin-1-yl)methyl]-3,4-dihydroisoquinolin-2(1H)-yl]carbonyl}-1,3-benzodioxol-5-yl)-1H-pyrrole-3-carboxamide], for which the IC50 stood at 6.7 nM at Bcl-2 protein and 146 nM in assay [1].
For `Cc1cc(C(=O)N(c2ccc(O)cc2)c2ccc(Cl)cc2)cn1-c1cc2c(cc1C(=O)N1Cc3ccccc3C[C@H]1CN1CCN(C)CC1)OCO2` [Example 85, N-(4-Chlorophenyl)-N-(4-hydroxyphenyl)-5-methyl-1-(6-{[(3S)-3-[(4-methylpiperazin-1-yl)methyl]-3,4-dihydroisoquinolin-2(1H)-yl]carbonyl}-1,3-benzodioxol-5-yl)-1H-pyrrole-3-carboxamide], the IC50 turned out to be 3.7 nM on Bcl-2 protein and 129 nM in assay [1].
Regarding `Cc1cc(C(=O)N(c2ccc(O)cc2)c2ccc3[nH]ccc3c2)cn1-c1cc(Cl)ccc1C(=O)N1Cc2ccccc2C[C@H]1CN1CCN(C)CC1` [Example 86, 1-(5-Chloro-2-{[(3S)-3-[(4-methylpiperazin-1-yl)methyl]-3,4-dihydroisoquinolin-2(1H)-yl]carbonyl}phenyl)-N-(4-hydroxyphenyl)-N-(1H-indol-5-yl)-5-methyl-1H-pyrrole-3-carboxamide], the IC50 was 5.4 nM on Bcl-2 protein and 67.7 nM in assay [1].
The matching figures for `Cc1cc(C(=O)N(c2ccc(O)cc2)c2ccc3[nH]ccc3c2)cn1-c1cc2c(cc1C(=O)N1Cc3ccccc3C[C@H]1CN1CCN(C)CC1)OCO2` [Example 87, N-(4-Hydroxyphenyl)-N-(1H-indol-5-yl)-5-methyl-1-(6-{[(3S)-3-[(4-methylpiperazin-1-yl)methyl]-3,4-dihydroisoquinolin-2(1H)-yl]carbonyl}-1,3-benzodioxol-5-yl)-1H-pyrrole-3-carboxamide]: 4.4 nM and 138 nM.
The matching figures for `CN1CCN(C[C@@H]2Cc3ccccc3CN2C(=O)c2cc3c(cc2-n2cc(C(=O)N(c4ccc(O)cc4)c4ccc5[nH]ccc5c4)c4cc(Cl)ccc42)OCO3)CC1` [Example 88, 5-Chloro-N-(4-hydroxyphenyl)-N-(1H-indol-5-yl)-1-(6-{[(3S)-3-[(4-methylpiperazin-1-yl)methyl]-3,4-dihydroisoquinolin-2(1H)-yl]carbonyl}-1,3-benzodioxol-5-yl)-1H-indole-3-carboxamide]: 19.6 nM and 541 nM.

One may read the IC50 as the concentration that inhibits the measured activity by half.
